pIC50: −log10 of the molar value. In brackets after ≈: the same amount, converted by molar mass.

The subject of one assay is M. tuberculosis H37Rv. Put plainly: Resazurin reduction microtiter assay (REMA), growth inhibition and MIC determination. Format: cell-based. As to conditions: Mycobacterium tuberculosis, 168 h, 7 days at 37° C.; for inhibition at 20 µM: at 20 uM compound, read-out: H37Rv inh % at 20 uM; for MIC: two-fold serial dilution from 100 to 0.16 μM, read-out: H37Rv MIC90. A general note: The colour change of resazurin is a common sign of viable cells or microbes.

The target in the next assay is T1, human PLK1 kinase domain (Homo sapiens, UniProt P53350).
T1 construct: Each reaction consisted of 30 nM enzyme PLK1 kinase domain
As to the kind of experiment: In vitro PLK1 assay (IMAP fluorescence polarization kinase assay). Format: biochemical. To be noted: for pIC50: 30 nM PLK1 kinase domain, 16 μM ATP (=Kmapp), 90 min at room temperature; for inhibition at 10 µM: at 10 uM compound. The protocol: The activity of the compounds described in the present invention was determined using a commercially available IMAP Screening Express Assay Kit (Molecular devices).
This method measures the change in the fluorescent polarization of a fluorescently-labeled peptide due to the effect of human PLK1 kinase domain on it. PLK1 kinase assays were performed in low protein binding 384-well plates (Corning 3676). Test compounds were diluted in 100% DMSO to 5 mM stock concentration, the further dilutions were made in H2O or 100% DMSO to desirable concentrations.
Each reaction consisted of 30 nM enzyme PLK1 kinase domain, 400 nM 5TAMRA-RGSFNDTLDFD-NH2 (Genecust Europe), 16 μM ATP (=Kmapp, Sigma-Aldrich) and kinase buffer: 20 mM HEPES pH 7.5 (Sigma-Aldrich), 1 mM DTT (Sigma-Aldrich), 10 mM MgCl2 (Sigma-Aldrich), 0.01% Triton X-100 (Sigma-Aldrich).
For each reaction, 4 or 6 μl containing 5TAMRA-RGSFNDTLDFD-NH2, ATP and kinase buffer were combined with 2 μl diluted compound in H2O or 0.04 μl compound in 100% DMSO. The kinase reaction was started by the addition of 2 μl diluted enzyme. The reaction was allowed to run for 90 minutes at room temperature. The reaction was stopped by adding 15 μl IMAP beads (1:1200 beads in progressive (40% buffer A, 60% buffer B) 1× buffer). After an additional 60 minutes, fluorescent polarization (Ex: 550-10 nm, Em: 590-10 nm, Dich: 561 nm) was measured using Analyst GT multimode reader (Molecular Devices).
(In fluorescence polarisation assays a small probe gives low polarisation when free and higher when bound to something large.)

T1 sequence (P53350 53-305 limits assumed): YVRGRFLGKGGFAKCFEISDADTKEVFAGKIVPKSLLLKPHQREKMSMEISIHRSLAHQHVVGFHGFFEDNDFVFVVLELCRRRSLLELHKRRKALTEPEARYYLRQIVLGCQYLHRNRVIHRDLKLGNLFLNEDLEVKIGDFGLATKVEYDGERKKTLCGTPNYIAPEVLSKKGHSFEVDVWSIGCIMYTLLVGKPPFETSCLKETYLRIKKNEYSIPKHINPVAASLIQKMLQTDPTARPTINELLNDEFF

Broadly, the pIC50 is the IC50 on a negative log10 scale, so that one unit is a factor of ten. As for `Cc1noc(NS(=O)(=O)c2ccc(Nc3cc(-c4ccccc4C(F)(F)F)ncn3)cc2)c1C` [Example 1, N-(3,4-Dimethyl-isoxazol-5-yl)-4-[6-(2-trifluoromethyl-phenyl)-pyrimidin-4-ylamino]-benzenesulfonamide], in the assay with M. tuberculosis H37Rv, the inhibition at 20 µM is 101% and the MIC was found to be 2.77 µM (≈ 1.35 µg/mL). Further, on human PLK1 kinase domain, the pIC50 was 5.84 and the inhibition at 10 µM was 96.1%.

As to `Cc1noc(NS(=O)(=O)c2ccc(Nc3cc(-c4ccccc4OC(F)(F)F)ncn3)cc2)c1C` [Example 2, N-(3,4-Dimethyl-isoxazol-5-yl)-4-[6-(2-trifluoromethoxy-phenyl)-pyrimidin-4-ylamino]-benzenesulfonamide], in the assay with M. tuberculosis H37Rv, the inhibition at 20 µM stood at 102% and the MIC stood at 9.71 µM (≈ 4.91 µg/mL). Besides, at human PLK1 kinase domain, the pIC50 was 6.16 and the inhibition at 10 µM worked out at 69%.

In the case of `Cc1noc(NS(=O)(=O)c2ccc(Nc3cc(-c4cccc5c4OCO5)ncn3)cc2)c1C` [Example 3, 4-(6-Benzo[1,3]dioxol-4-yl-pyrimidin-4-ylamino)-N-(3,4-dimethyl-isoxazol-5-yl)-benzenesulfonamide], the inhibition at 20 µM in the assay on M. tuberculosis H37Rv is -7.2%. The inhibition at 10 µM against human PLK1 kinase domain came to 48.5%.

`Cc1noc(NS(=O)(=O)c2ccc(Nc3cc(-c4ccccc4Oc4ccccc4)ncn3)cc2)c1C` [Example 4, N-(3,4-Dimethyl-isoxazol-5-yl)-4-[6-(2-phenoxy-phenyl)-pyrimidin-4-ylamino]-benzenesulfonamide]: the inhibition at 20 µM in the assay with M. tuberculosis H37Rv was 39%. Besides, on human PLK1 kinase domain, the inhibition at 10 µM stood at 52.7%.

Take `COc1ccc(C(C)C)cc1-c1cc(Nc2ccc(S(=O)(=O)Nc3onc(C)c3C)cc2)ncn1` [Example 5, N-(3,4-Dimethyl-isoxazol-5-yl)-4-[6-(5-isopropyl-2-methoxy-phenyl)-pyrimidin-4-ylamino]-benzenesulfonamide]: in the assay with M. tuberculosis H37Rv, the inhibition at 20 µM was 99.2% and the MIC was found to be 16 µM (≈ 7.9 µg/mL). Further, on human PLK1 kinase domain, the inhibition at 10 µM is 43.2%.

In the case of `COc1ccc(OC)c(-c2cc(Nc3ccc(S(=O)(=O)Nc4onc(C)c4C)cc3)ncn2)c1` [Example 7, 4-[6-(2,5-Dimethoxy-phenyl)-pyrimidin-4-ylamino]-N-(3,4-dimethyl-isoxazol-5-yl)-benzenesulfonamide], in the assay with M. tuberculosis H37Rv, the inhibition at 20 µM came out at 58.2%. Further, on human PLK1 kinase domain, the pIC50 is 6.72 and the inhibition at 10 µM is 59.6%.

On to `CCOc1ccccc1-c1cc(Nc2ccc(S(=O)(=O)Nc3onc(C)c3C)cc2)ncn1` [Example 8, N-(3,4-Dimethyl-isoxazol-5-yl)-4-[6-(2-ethoxy-phenyl)-pyrimidin-4-ylamino]-benzenesulfonamide], for which, in the assay on M. tuberculosis H37Rv, the inhibition at 20 µM is -48.4%. On human PLK1 kinase domain, the pIC50 was 5.90 and the inhibition at 10 µM came out at 82.4%.

As for `CCCOc1ccccc1-c1cc(Nc2ccc(S(=O)(=O)Nc3onc(C)c3C)cc2)ncn1` [Example 10, N-(3,4-Dimethyl-isoxazol-5-yl)-4-[6-(2-propoxy-phenyl)-pyrimidin-4-ylamino]-benzenesulfonamide], the inhibition at 20 µM in the assay on M. tuberculosis H37Rv was -21.2%. Besides, at human PLK1 kinase domain, the negative logarithm of the IC50 (pIC50) was 6.03 and the inhibition at 10 µM is 104%.

Regarding `Cc1noc(NS(=O)(=O)c2ccc(Nc3cc(-c4ccc5c(c4)OCO5)ncn3)cc2)c1C` [Example 11, 4-(6-Benzo[1,3]dioxol-5-yl-pyrimidin-4-ylamino)-N-(3,4-dimethyl-isoxazol-5-yl)-benzenesulfonamide], the inhibition at 20 µM in the assay on M. tuberculosis H37Rv was -21.5%. Further, at human PLK1 kinase domain, the pIC50 was 6.05 and the inhibition at 10 µM turned out to be 74.4%.

As for `Cc1noc(NS(=O)(=O)c2ccc(Nc3cc(-c4ccccc4OC(C)C)ncn3)cc2)c1C` [Example 13, N-(3,4-Dimethyl-isoxazol-5-yl)-4-[6-(2-isopropoxy-phenyl)-pyrimidin-4-ylamino]-benzenesulfonamide], the inhibition at 20 µM with M. tuberculosis H37Rv was -23%. On human PLK1 kinase domain, the pIC50 is 5.74 and the inhibition at 10 µM was found to be 88.6%.

Turning to `COc1ccc(F)c(F)c1-c1cc(Nc2ccc(S(=O)(=O)Nc3onc(C)c3C)cc2)ncn1` [Example 14, 4-[6-(2,3-Difluoro-6-methoxy-phenyl)-pyrimidin-4-ylamino]-N-(3,4-dimethyl-isoxazol-5-yl)-benzenesulfonamide], the inhibition at 10 µM on human PLK1 kinase domain was found to be 55.4%.

For the molecule `Cc1noc(NS(=O)(=O)c2ccc(Nc3cc(-c4ccc(F)cc4OC(C)C)ncn3)cc2)c1C` [Example 17, N-(3,4-Dimethyl-isoxazol-5-yl)-4-[6-(4-fluoro-2-isopropoxy-phenyl)-pyrimidin-4-ylamino]-benzenesulfonamide], the inhibition at 20 µM in the assay on M. tuberculosis H37Rv is -1.4%. On human PLK1 kinase domain, the pIC50 was 6.75 and the inhibition at 10 µM amounted to 68.8%.

For `COc1cc(F)ccc1-c1cc(Nc2ccc(S(=O)(=O)Nc3onc(C)c3C)cc2)ncn1` [Example 18, N-(3,4-Dimethyl-isoxazol-5-yl)-4-[6-(4-fluoro-2-methoxy-phenyl)-pyrimidin-4-ylamino]-benzenesulfonamide], the inhibition at 20 µM in the assay on M. tuberculosis H37Rv was -8.6%. Also, on human PLK1 kinase domain, the pIC50 was 7.40 and the inhibition at 10 µM was 63.3%.

Turning to `Cc1noc(NS(=O)(=O)c2ccc(Nc3cc(-c4ccc(F)cc4Cl)ncn3)cc2)c1C` [Example 19, 4-[6-(2-Chloro-4-fluoro-phenyl)-pyrimidin-4-ylamino]-N-(3,4-dimethyl-isoxazol-5-yl)-benzenesulfonamide], in the assay on M. tuberculosis H37Rv, the inhibition at 20 µM stood at 100% and the MIC worked out at 19.4 µM (≈ 9.22 µg/mL). For the same molecule, on human PLK1 kinase domain, the negative logarithm of the IC50 (pIC50) is 7.33 and the inhibition at 10 µM worked out at 60.8%.

Regarding `CCc1ccccc1-c1cc(Nc2ccc(S(=O)(=O)Nc3onc(C)c3C)cc2)ncn1` [Example 20, N-(3,4-Dimethyl-isoxazol-5-yl)-4-[6-(2-ethyl-phenyl)-pyrimidin-4-ylamino]-benzenesulfonamide], in the assay on M. tuberculosis H37Rv, the inhibition at 20 µM came to 103% and the MIC was determined as 4.84 µM (≈ 2.18 µg/mL). In addition, at human PLK1 kinase domain, the pIC50 is 6.02 and the inhibition at 10 µM stood at 73%.

For `Cc1noc(NS(=O)(=O)c2ccc(Nc3cc(-c4ccc(F)cc4F)ncn3)cc2)c1C` [Example 21, 4-[6-(2,4-Difluoro-phenyl)-pyrimidin-4-ylamino]-N-(3,4-dimethyl-isoxazol-5-yl)-benzenesulfonamide], the inhibition at 20 µM with M. tuberculosis H37Rv is -3.7%. For the same molecule, on human PLK1 kinase domain, the pIC50 was 6.43 and the inhibition at 10 µM is 65.8%.

In the case of `Cc1noc(NS(=O)(=O)c2ccc(Nc3cc(-c4ccccc4COc4ccc(OC(F)(F)F)cc4)ncn3)cc2)c1C` [Example 30, N-(3,4-Dimethyl-isoxazol-5-yl)-4-{6-[2-(4-trifluoromethoxy-phenoxymethyl)-phenyl]-pyrimidin-4-ylamino}-benzenesulfonamide], the inhibition at 10 µM on human PLK1 kinase domain was 0%.

For `COc1ccccc1-c1cc(Nc2ccc(S(=O)(=O)Nc3onc(C)c3C)cc2)ncn1` [Example 31, N-(3,4-Dimethyl-isoxazol-5-yl)-4-[6-(2-methoxy-phenyl)-pyrimidin-4-ylamino]-benzenesulfonamide], at human PLK1 kinase domain, the pIC50 is 5.61 and the inhibition at 10 µM is 79.8%.

For `Cc1noc(NS(=O)(=O)c2ccc(Nc3cc(-c4cccc(N)c4)ncn3)cc2)c1C` [Example 44, 4-[6-(3-Amino-phenyl)-pyrimidin-4-ylamino]-N-(3,4-dimethyl-isoxazol-5-yl)-benzenesulfonamide], at human PLK1 kinase domain, the pIC50 was 4.94 and the inhibition at 10 µM was 68%.

As for `Cc1noc(NS(=O)(=O)c2ccc(Nc3cc(-c4ccc(N)cc4)ncn3)cc2)c1C` [Example 45, 4-[6-(4-Amino-phenyl)-pyrimidin-4-ylamino]-N-(3,4-dimethyl-isoxazol-5-yl)-benzenesulfonamide], on human PLK1 kinase domain, the pIC50 is 5.13 and the inhibition at 10 µM is 88%.

For the molecule `Cc1noc(NS(=O)(=O)c2ccc(Nc3cc(-c4ccc(C(N)=O)cc4)ncn3)cc2)c1C` [Example 46, 4-{6-[4-(3,4-Dimethyl-isoxazol-5-ylsulfamoyl)-phenylamino]-pyrimidin-4-yl}-benzamide], the inhibition at 10 µM on human PLK1 kinase domain amounted to 24%.

For `Cc1ccc(COCc2cc(C)cc(-c3cc(Nc4ccc(S(=O)(=O)Nc5onc(C)c5C)cc4)ncn3)c2)cc1` [Example 47, N-(3,4-Dimethyl-isoxazol-5-yl)-4-{6-[3-methyl-5-(4-methyl-benzyloxymethyl)-phenyl]-pyrimidin-4-ylamino}-benzenesulfonamide], the inhibition at 10 µM against human PLK1 kinase domain is -4%.

As to `Cc1noc(NS(=O)(=O)c2ccc(Nc3cc(-c4ccc(N(C)C)cc4)ncn3)cc2)c1C` [Example 48, 4-[6-(4-Dimethylamino-phenyl)-pyrimidin-4-ylamino]-N-(3,4-dimethyl-isoxazol-5-yl)-benzenesulfonamide], on human PLK1 kinase domain, the pIC50 is 4.85 and the inhibition at 10 µM was determined as 87%.

The record behind these values is patent US20150368209A1, “4-Pyrimidinylamino-benzenesulfonamide derivatives and their use for the inhibition of polo-like kinase 1 (PLK1) for the treatment of cancer and their use for the treatment of bacterial infections” (VICHEM CHEMIE KUTATÓ KFT., priority 2013, published 2015).
